Experimental findings from patent US8426596B2, “Process of producing bleach boosters” (BASF Aktiengesellschaft, priority 2005, dated 2013) are described below.

Holding throughout (assay type): biochemical
In one test the target is T1, Termamyl (alpha amylase) (Bacillus licheniformis, UniProt P06278).
T1 construct: purchased Novozymes, Denmark
The test is described as follows: Organic Catalyst/Enzyme Compatibility Test (alpha amylase activity assay), Termamyl. Particulars: (Ac/Ab)x100; peracetic acid 5.0 ppm; organic catalyst 0.5 ppm; 40° C.; sample at 7 min 45 s. On the procedure:
(§1) Organic Catalyst/Enzyme Compatibility Test
(§2) The test described below uses an alpha amylase activity assay to measure the impact of organic catalysts on the enzyme.
(§3) Equipment. UV/Vis spectrophotometer capable of measuring @ 415 nm, heated magnetic stirrer capable of 40° C., 5 ml Luer lock syringe and filters (Acrodisc 0.45 ? μm), pH meter, and balance (4-place analytical).
(§4) Reagents. Merck Amylase Kit (Merck Eurolab, Cat. No. 1.19718.0001); Trizma Base (Sigma Cat # T-1503, or equivalent); Calcium Chloride Dihydrate (Sigma Cat # C-5080, or equivalent); Sodium Thiosulfate Pentahydrate (Sigma Cat # S-6672 or equivalent); Hydrochloric Acid (VWR Cat # JT9535-0, or equivalent); Hardness solution (CTC Group, 3.00 gr/cc or equivalent); Sodium Percarbonate; Peracetic Acid (Aldrich, Cat. #26933-6 or equivalent); Amylase enzymes: Termamyl, Natalase, and Duramyl (Novozymes, Denmark); Granular detergent matrix containing no enzyme, organic catalyst or bleaching agents.
(§5) 1.) Solution Preparation: Prepare the Following:
(§6) • a.) TRIS Assay Buffer. Prepare 1 liter of 0.1M TRIS buffer, 0.5% sodium thiosulphate (W/V), 0.11% calcium chloride (w/v) at pH 8.3. • b.) Blank Detergent Solution. Prepare one liter of 0.5% enzyme and bleach free granular detergent product in deionized water (W/V) that is 250 ppm H2O2 (0.77 gm percarbonate) and 10 gpg hardness (880 UI of hardness). • c.) Termamyl, Duramyl and Natalase Stock. Make 100 ml solutions each of a 0.1633 mg active Termamyl per ml TRIS Buffer, a 0.1159 mg active Natalase per ml TRIS Buffer, and a 0.1596 mg active Duramyl per ml TRIS Buffer. • d.) Organic catalyst stocks. Make a 500 ppm in methanol solution of μm. • e.) Peracetic acid stock. Make a 3955 ppm peracetic acid solution in deionized water. • f.) Amylase reagent. Follow Merck kit instructions for preparing flacons (containers) 1 and 2 using flacon 3 and subsequent mixing of flacons 1 and 2 to produce the final reagent used in the amylase activity analysis. 2.) Sample Analysis • a.) Analysis of sample with enzyme only: Add 100 ml of blank detergent solution to a 150 ml beaker. Place beaker on heated stir plate and bring temperature to 40° C. with stirring. Add Y μl of enzyme stock to the beaker where Y=612 μL for Duramyl, 306 μl for Termamyl, or 918 μl for Natalase. Spike only enzyme of interest. Stir sample for 1 minute. Start timer. At 7 minutes 45 seconds, pull a sample and filter it using a 0.45 μm syringe filter (5 ml syringe). Mix 6 μl of filtered sample with 250 μL of amylase reagent in a cuvette and place the cuvette in a UV/VIS spectrophotometer and monitor change in absorbance at 415 nm. Determine length of time (tE) to the nearest second required to obtain an absorbance reading of 1.0 for each enzyme. Use each enzyme's tE in Steps 2.)b.) and 2.)c.) below. • b.) Analysis of sample with enzyme and peracetic acid only. Follow Step 2.)a.) except after enzyme addition, allow solution to stir for 1 minute then add 127 μl of peracetic acid stock and start timer. Pull sample at 7 minutes 45 seconds as in Step 2.)a.). Once sample and reagent are mixed, record the absorbance at tE for the respective enzyme. Designate such absorbance Ab. • c.) Analysis of sample with enzyme, peracetic acid, and organic catalyst. […] Once sample and reagent are mixed, record the absorbance at tE for the respective enzyme. Designate such absorbance A, 3.) Calculate Enzyme Compatibility Value (ECV) • a.) Calculate the ECV for each specific enzyme: termamyl (ECVter), duramyl (ECVdur) and natalase (ECVnat). […]

The test system of the next test is Duramyl (alpha amylase). Briefly: Organic Catalyst/Enzyme Compatibility Test (alpha amylase activity assay), Duramyl. To be noted: (Ac/Ab)x100; peracetic acid 5.0 ppm; organic catalyst 0.5 ppm; 40° C.; sample at 7 min 45 s. On the procedure: as §1, §2, §3, §4, §5, §6
Another test relates to Natalase (alpha amylase). The test is described as follows: Organic Catalyst/Enzyme Compatibility Test (alpha amylase activity assay), Natalase. Particulars: (Ac/Ab)x100; peracetic acid 5.0 ppm; organic catalyst 0.5 ppm; 40° C.; sample at 7 min 45 s. The procedure:
as §1, §2, §3, §4, §5, §6

Test [1] relates to Termamyl, Duramyl and Natalase (alpha amylases). The test is described as follows: Organic Catalyst/Enzyme Compatibility Test, average over the three amylases. To be noted: ECV=(ECVter+ECVdur+ECVnat)/3; peracetic acid 5.0 ppm; organic catalyst 0.5 ppm. The procedure:
as §1, §2, §3, §4, §5, §6

Where a name gives a salt, the structure may show the parent alone.

T1 sequence (P06278 30-512): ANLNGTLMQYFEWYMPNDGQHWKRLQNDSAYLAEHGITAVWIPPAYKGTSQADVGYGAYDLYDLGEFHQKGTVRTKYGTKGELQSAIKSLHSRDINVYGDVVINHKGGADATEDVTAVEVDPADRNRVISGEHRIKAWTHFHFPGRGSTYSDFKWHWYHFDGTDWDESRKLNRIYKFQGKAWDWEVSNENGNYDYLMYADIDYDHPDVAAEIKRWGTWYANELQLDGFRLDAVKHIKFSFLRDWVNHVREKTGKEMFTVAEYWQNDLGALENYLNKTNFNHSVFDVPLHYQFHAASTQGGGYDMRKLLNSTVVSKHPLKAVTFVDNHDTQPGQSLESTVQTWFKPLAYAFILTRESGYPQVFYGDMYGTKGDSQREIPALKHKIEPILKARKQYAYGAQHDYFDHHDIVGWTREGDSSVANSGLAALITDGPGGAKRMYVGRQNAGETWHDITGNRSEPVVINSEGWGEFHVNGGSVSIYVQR

Take `CC(C)(C)OCC(C[N+]1=Cc2ccccc2CC1)OS(=O)(=O)[O-]` (centres unmarked) [Entry 1, Sulfuric acid mono-[2-(3,4-dihydro-isoquinolin-2-yl)-1-((1,1-di-methylethoxy)methyl)ethyl] ester, internal salt, reference compound]: on Termamyl (alpha amylase), the “Enzyme Compatibility Value ECVter” value is 51. Further, the “Enzyme Compatibility Value ECVdur” value in the test on Duramyl (alpha amylase) is reported as 86. Besides, in the test with Natalase (alpha amylase), the “Enzyme Compatibility Value ECVnat” value worked out at 58. Besides, the “Enzyme Compatibility Value ECV” value in test [1] turned out to be 65.

Consider `CCCCC(CC)COCC(C[N+]1=Cc2ccccc2CC1)OS(=O)(=O)[O-]` (centres unmarked) [Entry 2, Sulfuric acid mono-[2-(3,4-dihydro-isoquinolin-2-yl)-1-(2-ethyl-hexyloxymethyl)-ethyl] ester, internal salt, reference compound], for which the “Enzyme Compatibility Value ECVter” value at Termamyl (alpha amylase) was found to be 54. The “Enzyme Compatibility Value ECVdur” value with Duramyl (alpha amylase) turned out to be 90. Further, the “Enzyme Compatibility Value ECVnat” value in the test with Natalase (alpha amylase) is 57. For the same compound, the “Enzyme Compatibility Value ECV” value in test [1] is 67.

For the compound `O=S(=O)([O-])CCC[N+]1=Cc2ccccc2C(Cc2ccccc2)(Cc2ccccc2)C1` [Entry 4, 3,4-dihydro-4,4-dibenzyl-2-(3-sulfopropyl)isoquinolinium, Internal salt], the “Enzyme Compatibility Value ECVter” value at Termamyl (alpha amylase) stood at 102. Also, in the test with Duramyl (alpha amylase), the “Enzyme Compatibility Value ECVdur” value worked out at 99. The “Enzyme Compatibility Value ECVnat” value in the test with Natalase (alpha amylase) is listed as 104. Moreover, the “Enzyme Compatibility Value ECV” value in test [1] is 102.

Regarding `O=S(=O)([O-])OCC[N+]1=Cc2ccccc2C(Cc2ccccc2)(Cc2ccccc2)C1` [Entry 3, 3,4-dihydro-4,4-di(phenylmethyl)-2-[2′-(sulfooxy)ethyl]-isoquinolinium, internal salt], at Termamyl (alpha amylase), the “Enzyme Compatibility Value ECVter” value is listed as 101. For the same compound, in the test on Duramyl (alpha amylase), the “Enzyme Compatibility Value ECVdur” value is given as 100. The “Enzyme Compatibility Value ECVnat” value in the test with Natalase (alpha amylase) was 103. Further, the “Enzyme Compatibility Value ECV” value in test [1] is 101.

In the case of `Cc1ccc(CC2(Cc3ccc(C)cc3)C[N+](CCCS(=O)(=O)[O-])=Cc3ccccc32)cc1` [Entry 5, 3,4-dihydro-4,4-di(4-methylphenylmethyl)-2-(3-sulfopropyl)-isoquinolinium, internal salt], the “Enzyme Compatibility Value ECVter” value at Termamyl (alpha amylase) was found to be 103. For the same compound, the “Enzyme Compatibility Value ECVdur” value in the test on Duramyl (alpha amylase) worked out at 99. Moreover, the “Enzyme Compatibility Value ECVnat” value in the test with Natalase (alpha amylase) is 99. Also, in test [1], the “Enzyme Compatibility Value ECV” value was 100.
